What was measured:
HTT [1] = experiment: RT-qPCR splicing assay, HTT AJ/CJ mRNA; type: cell-based, human; conditions: Homo sapiens, 24 h, A673 or K562 cells; for IC50: decrease in canonical junction mRNA; for AC50: increase in alternative junction mRNA
Description: (§1) Compounds described herein were used to modulate RNA transcript abundance in cells. The expression of a target mRNA was measured by detecting the formation of an exon-exon junction in the canonical transcript (CJ). A compound mediated exon-inclusion event was detected by observing an increase in formation OF A new junction with an alternative exon (AJ). Real-time qPCR assays were used to detect these splicing switches and interrogate the potency of various compounds towards different target Genes. A high-throughput real time quantitative PCR (RT-qPCR) assay was developed to measure these two isoforms of the mRNA (CJ and AJ) for exemplary genes, such as HTT, SMN2, and MYB, together with a control housekeeping gene, GAPDH or GUSB or PPIA, used for normalization. Briefly, the A673 or K562 cell line was treated with various compounds described herein (e.g., compounds of Formula (i)). After treatment, the levels of the HTT, MYB, or SMN2 mRNA targets were determined from each sample of cell lysate by cDNA synthesis followed by qPCR.
(§2) The A673 cell line was cultured in DMEM with 10% FBS. Cells were diluted with full growth media and plated in a 96-well plate (15,000 cells in 100 ul media per well). The plate was incubated at 37° C. with 5% CO2 for 24 hours to allow cells to adhere. An 11-point 3-fold serial dilution of the compounds was made in DMSO then diluted in media in an intermediate plate. Compounds were transferred from the intermediate plate to the cell plate with the top dose at a final concentration of 10 uM in the well. Final DMSO concentration was kept at or below 0.25%. The cell plate was returned to the incubator at 37° C. with 5% CO2 for an additional 24 hours.
(§3) The K562 cell line was cultured in IMDM with 10% FBS. For K562, cells were diluted with full growth media and plated in either a 96-well plate (50,000 cells in 50 uL media per well) or a 384-well plate (8,000-40,000 cells in 45 uL media per well). An 11-point 3-fold serial dilution of the compounds were made in DMSO then diluted in media in an intermediate plate. Compound was transferred from the intermediate plate to the cell plate with the top dose at a final concentration of 10 uM in the well. Final DMSO concentration was kept at or below 0.25%. Final volume was 100 uL for 96-well plate and 50 uL for 384-well plate. The cell plate was then placed in an incubator at 37° C. with 5% CO2 for 24 hours.
(§4) The cells were then gently washed with 50 uL-100 uL Cold Pbs before proceeding to addition of lysis buffer. 30 uL-50 μL of room temperature lysis buffer with DNAse I (and optionally RNAsin) was added to each well. Cells were shaken/mixed thoroughly at room temperature for 5-10 minutes for lysis to take place and then 3 uL-5 μL of room temperature stop solution was added and wells were shaken/mixed again. After 2-5 minutes, the cell lysate plate was transferred to ice for RT-qPCR reaction setup. The lysates could also be frozen at −80° C. for later use.
(§5) In some cases, a direct lysis buffer was used. an appropriate volume of 3× lysis buffer (10 mM tRis, 150 mM NaCl, 1.5%-2.5% Igepal and 0.1-1 U/uL RNAsin, pH 7.4) was directly added to either K562 or A673 cells in media and mixed by pipetting 3 times. The plates were then incubated at room temperature with shaking/rocking for 20-50 minutes to allow for lysis to take place. After this time, the cell lysate plate was transferred to ice to set up for the RT-qPCR reactions. The lysates could also be frozen at −80° C. for later use.
(§6) To set up 10 uL RT-QpcR reactions, cell lysates were transferred to 384-well qPCR plates containing the master mix according to the table below. The plates were sealed, gently vortexed, and spun down before the run. The volumes were adjusted accordingly in some instances where the reaction was carried in 20 µL. The table below summarizes the components of the RT-qPCR reactions:
(§7) The RT-qPCR reaction was performed using a QuantStudio (ThermoFisher) under the following fast cycling conditions. […]

MYB [2] = experiment: RT-qPCR splicing assay, MYB AJ/CJ mRNA; type: cell-based; conditions: Homo sapiens, A673 or K562 cells, 24 hours; for IC50: decrease in canonical junction mRNA; for AC50: increase in alternative junction mRNA
Description: as §1, §2, §3, §4, §5, §6, §7

HTT [3] = experiment: Gene panel canonical junction qPCR assay, HTT CJ mRNA (Table 7); type: cell-based, human; conditions: Homo sapiens, read-out: HTT CJ mRNA decrease IC50
Description: as §1
(§8) The data analysis was performed by first determining the ΔCt vs the housekeeper gene. This ΔCt was then normalized against the DMSO control (ΔΔCt) and converted to RQ (relative quantification) using the 2^(−ΔΔCt) equation. The RQ were then converted to a percentage response by arbitrarily setting an assay window of 3.5 and 4.0 ΔCt for HTT-CJ and MYB-CJ respectively and an assay window of 9 and 3 ΔCt for HTT-AJ and MYB-AJ in 96 well format (50,000 K562 cells/well and 15,000 A673 cells per well) and an assay window of 3 and 4 ΔCt for HTT-CJ and MYB-CJ respectively and an assay window of 5 and 3 ΔCt for HTT-AJ and MYB-AJ respectively in 384 well format (8,000 K562 cells/well example). […] The percentage response was then fitted to the 4 parametric logistic equation to evaluate the concentration dependence of compound treatment. The increase in AJ mRNA is reported as AC50 (compound concentration having 50% response in AJ increase) while the decrease in CJ mRNA levels is reported as IC50 (compound concentration having 50% response in CJ decrease).
(§9) Additional studies were carried out for a larger panel of genes using the protocol provided above. The junction between flanking upstream and downstream exons was used to design canonical junction qPCR assays. At least one of the forward primer, reverse primer or the CY5-labeled 5′ nuclease probe (with 3′ quencher such as ZEN/Iowa Black FQ) was designed to overlap with the exon junction to capture the CJ mRNA transcript. BLAST was used to confirm the specificity of the probeset and parameters such as melting temperature, GC content, amplicon size, and primer dimer formation are considered during their design. Data for the decrease in CJ mRNA levels for four exemplary genes (HTT, SMN2, MYB, and Target C) analyzed in this panel are reported as IC50 (compound concentration having 50% response in CJ decrease).

SMN2 = experiment: Gene panel canonical junction qPCR assay, SMN2 CJ mRNA (Table 7); type: cell-based; conditions: Homo sapiens, read-out: SMN2 CJ mRNA decrease IC50
Description: as §1, §8, §9

MYB [4] = experiment: Gene panel canonical junction qPCR assay, MYB CJ mRNA (Table 7); type: cell-based; conditions: Homo sapiens, read-out: MYB CJ mRNA decrease IC50
Description: as §1, §8, §9

Target C = experiment: Gene panel canonical junction qPCR assay, Target C CJ mRNA (Table 7); type: cell-based, human; conditions: Homo sapiens, read-out: Target C CJ mRNA decrease IC50
Description: as §1, §8, §9

SMILES	IC50 (HTT [1]) [nM]	IC50 (MYB [2]) [nM]	IC50 (HTT [3]) [nM]	IC50 (SMN2) [nM]	IC50 (MYB [4]) [nM]	IC50 (Target C) [nM]	AC50 (HTT [1]) [nM]	AC50 (MYB [2]) [µM]
c1cnn(-c2ccc3c(c2)COc2nc(N4C[C@H]5CNC[C@H]5C4)ccc2-3)c1 [Compound 185]	> 10000	> 10000	> 10000	1000 to 10000	> 10000	> 10000	> 10000	1 to 10
CN1C[C@@H]2[C@H](C1)[C@H]2N(C)c1ccc2c(n1)OCc1cc(-n3cccn3)ccc1-2 [Compound 196]	> 10000	> 10000	> 10000	> 10000	> 10000	> 10000	> 10000	> 10
Fc1ccn(-c2ccc3c(c2)COc2nc(O[C@@H]4C[C@H]5CC[C@@H](C4)N5)ccc2-3)n1 [Compound 230, (1R,3R,5S)-3-{[8-(3-fluoropyrazol-1-yl)-6H-isochromeno[3,4-b]pyridin-3-yl]oxy}-8-azabicyclo[3.2.1]octane]	100 to 1000	100 to 1000	100 to 1000	100 to 1000	100 to 1000	1000 to 10000	100 to 1000	1 to 10
COc1cc(-c2ccc3c(c2)COc2nc(OC4CC(C)(C)NC(C)(C)C4)ccc2-3)cnn1 [Compound 226, 3-methoxy-5-{3-[(2,2,6,6-tetramethylpiperidin-4-yl)oxy]-6H-isochromeno[3,4-b]pyridin-8-yl}pyridazine]	< 100	100 to 1000	< 100	< 100	100 to 1000	100 to 1000	< 100	> 10
c1cnn(-c2ccc3c(c2)COc2nc(NC4CCNCC4)ccc2-3)c1 [Compound 174]	> 10000	> 10000	> 10000	1000 to 10000	> 10000	> 10000	> 10000	> 10
COc1cc(-c2cc3c(cc2F)-c2ccc(O[C@@H]4C[C@H]5CC[C@@H](C4)N5)nc2OC3)cnn1 [Compound 243]	< 100	100 to 1000	< 100	< 100	100 to 1000	100 to 1000	< 100	0.1 to 1
COc1cc(-c2ccc3c(c2)COc2nc(N(C)C4CC(C)(C)NC(C)(C)C4)ccc2-3)cnn1 [Compound 231, N-[8-(6-methoxypyridazin-4-yl)-6H-isochromeno[3,4-b]pyridin-3-yl]-N,2,2,6,6-pentamethylpiperidin-4-amine]	100 to 1000	100 to 1000	100 to 1000	< 100	100 to 1000	100 to 1000	100 to 1000	1 to 10
c1cnn(-c2ccc3c(c2)COc2nc(N(C4CCNCC4)C4CC4)ccc2-3)c1 [Compound 202]	1000 to 10000	1000 to 10000	1000 to 10000	> 10000	1000 to 10000	> 10000	> 10000	> 10
c1cnn(-c2ccc3c(c2)COc2nc(N4CCCC5(CCNC5)C4)ccc2-3)c1 (stereo not drawn) [Compound 192]	> 10000	> 10000	> 10000	> 10000	> 10000	> 10000	> 10000	> 10

Continued, in another order:

IC50 (HTT [1]) [nM]	IC50 (MYB [2]) [nM]	IC50 (HTT [3]) [nM]	IC50 (SMN2) [nM]	IC50 (MYB [4]) [nM]	IC50 (Target C) [nM]	SMILES	AC50 (HTT [1]) [nM]	AC50 (MYB [2]) [µM]
100 to 1000	100 to 1000	100 to 1000	100 to 1000	100 to 1000	1000 to 10000	CCN(C)C1CCN(c2ccc3c(n2)OCc2cc(-c4cnnc(OC)c4)ccc2-3)C1 (stereo not drawn) [Compound 310]	100 to 1000	1 to 10
1000 to 10000	> 10000	1000 to 10000	1000 to 10000	> 10000	> 10000	CC(C)(C)NC1CCN(c2ccc3c(n2)OCc2cc(-c4cnnc(OC5CC5)c4)ccc2-3)C1 (stereo not drawn) [Compound 268, N-tert-butyl-1-[8-(6-cyclopropoxypyridazin-4-yl)-6H-isochromeno[3,4-b]pyridin-3-yl]pyrrolidin-3-amine]	1000 to 10000	> 10
100 to 1000	1000 to 10000	100 to 1000	100 to 1000	1000 to 10000	1000 to 10000	CCN(CC)C1CCN(c2ccc3c(n2)OCc2cc(-c4cnnc(OC)c4)ccc2-3)C1 (stereo not drawn) [Compound 321]	100 to 1000	1 to 10
< 100	100 to 1000	< 100	< 100	100 to 1000	100 to 1000	COc1cc(-c2ccc3c(c2)COc2nc(N4CCN[C@H](C5CC5)C4)ccc2-3)cnn1 [Compound 297]	100 to 1000	0.1 to 1
100 to 1000	100 to 1000	100 to 1000	< 100	100 to 1000	100 to 1000	COc1cc(-c2ccc3c(c2)COc2nc(N4CCN[C@@H](C5CC5)C4)ccc2-3)cnn1 [Compound 296]	100 to 1000	0.1 to 1
> 10000	> 10000	> 10000	> 10000	> 10000	> 10000	COc1cc(-c2ccc3c(c2)COc2nc(N4CCC(NC(C)(C)C)CC4)ccc2-3)cnn1 [Compound 302]	> 10000	> 10

Source: patent US20240400584A1, “COMPOUNDS AND METHODS FOR MODULATING SPLICING” (REMIX THERAPEUTICS INC., priority 2021, published 2024)
